ChEMBL document CHEMBL1201862, “PubChem BioAssay data set” (2004)
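Cultured in 96-well plates, cells were exposed to test compound for 48 hours across five concentrations. The concentration for 50% growth inhibition is given as GI50.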 Active and inactive are the calls of the source. Rule as the data show it: active = GI50 up to about 1.1 µM and inactive = higher.

Key:
Experiment in all cases: NCI tumour cell line growth inhibition, 48 h
[1] = test system: ACHN
[2] = test system: CCRF-CEM
[3] = test system: DU-145
[4] = test system: EKVX
[5] = test system: HCC 2998
[6] = test system: HL-60
[7] = test system: KM12
[8] = test system: MCF7
[9] = test system: MDA-N
[10] = test system: Malme-3M
[11] = test system: OVCAR-3
[12] = test system: OVCAR-4
[13] = test system: OVCAR-8
[14] = test system: PC-3
[15] = test system: SF-539
[16] = test system: SK-MEL-28
[17] = test system: SR
[18] = test system: TK-10
[19] = test system: U-251
[20] = test system: T47D

Measured: GI50

CO[C@H]1C[C@H](n2cc(C)c(=O)[nH]c2=O)O[C@@H]1CO
inactive: [1] > 100 µM | [2] > 100 µM | [3] > 100 µM | [4] > 100 µM | [5] > 100 µM | [6] > 100 µM | [7] > 100 µM | [8] > 100 µM | [9] > 100 µM | [10] > 100 µM | [11] > 100 µM | [12] > 100 µM | [13] > 100 µM | [14] > 100 µM | [15] > 100 µM | [16] > 100 µM | [17] > 100 µM | [18] > 100 µM | [19] > 100 µM

CCN(CC)c1ccc(/C=C/C(=O)c2cc(C(C)(C)C)c(O)c(C(C)(C)C)c2)cc1
inactive: [1] > 42.6 µM | [2] 3.85 µM | [3] 29 µM | [4] 4.13 µM | [5] 16.3 µM | [6] 3.37 µM | [7] 2.99 µM | [8] 3.64 µM | [9] 3.14 µM | [10] > 100 µM | [11] 10.2 µM | [12] 6.76 µM | [13] 15.9 µM | [14] 9.18 µM | [15] 3.19 µM | [16] > 50.7 µM | [17] 2.8 µM | [18] 5.71 µM | [19] 3.3 µM

CN(C)c1ccc(/C=C(\NC(=O)c2ccccc2)C(=O)NC(CCC(=O)O)C(=O)O)cc1 (stereo unspecified)
inactive: [1] > 100 µM | [2] > 100 µM | [3] > 100 µM | [4] > 100 µM | [5] > 100 µM | [6] > 100 µM | [7] > 100 µM | [8] > 100 µM | [9] > 100 µM | [10] > 100 µM | [11] > 100 µM | [12] > 100 µM | [13] > 100 µM | [14] > 100 µM | [15] > 100 µM | [16] > 100 µM | [20] > 100 µM | [18] > 100 µM | [19] > 100 µM

C=CCOC(=O)CC[N+]1=CCC(c2ccccc2)(c2ccccc2)O1
inactive: [1] > 100 µM | [3] > 100 µM | [4] > 100 µM | [5] > 100 µM | [7] > 100 µM | [8] > 100 µM | [9] > 100 µM | [11] > 100 µM | [12] > 100 µM | [13] > 100 µM | [14] > 100 µM | [15] > 100 µM | [16] > 100 µM | [20] > 100 µM | [18] > 100 µM | [19] > 100 µM

N#Cc1c(NC(=O)CCC(=O)O)ccc2ccccc12
inactive: [1] > 100 µM | [3] > 100 µM | [4] > 100 µM | [7] > 100 µM | [8] > 100 µM | [9] > 100 µM | [10] > 100 µM | [11] > 100 µM | [12] > 100 µM | [13] > 100 µM | [14] > 100 µM | [15] > 100 µM | [16] > 100 µM | [20] > 100 µM | [18] > 100 µM | [19] > 100 µM

CC(=O)OCc1cc(=O)n2c([nH]c3ccccc32)c1C#N
inactive: [1] 52.4 µM | [2] 19.3 µM | [3] 68.7 µM | [4] 72.3 µM | [5] 42.6 µM | [6] 42.3 µM | [8] > 100 µM | [9] > 100 µM | [10] 89.1 µM | [11] 43.2 µM | [12] 1.63 µM | [13] > 100 µM | [14] 40.6 µM | [15] > 100 µM | [16] 82.6 µM | [20] 78.5 µM | [18] 82.4 µM | [19] 34 µM

CCOC(=O)C1=C(C)OC(=O)[C@@]2(OC)C=C(Cl)[C@@]12C
inactive: [1] > 100 µM | [2] > 100 µM | [3] > 100 µM | [4] > 100 µM | [5] > 100 µM | [6] 33 µM | [7] > 100 µM | [8] > 100 µM | [9] > 100 µM | [10] > 100 µM | [11] > 100 µM | [12] > 100 µM | [13] > 100 µM | [14] > 100 µM | [15] > 100 µM | [16] > 100 µM | [17] > 100 µM | [18] > 100 µM | [19] > 100 µM
